Experimental data taken from patent US20240239748A1, “NOVEL FORMS OF ENTINOSTAT” (Macfarlan Smith Limited, priority 2021, published 2024).
≈ marks a conversion by molar mass, not a printed value. Where two headings read alike, the source gives them in different places.

Experiments:
[1] = 4 hour solubility in buffered media (HPLC quantitation); format: physicochemical; settings: thermodynamic from solid, 25° C.
Protocol: Sufficient sample is suspended in 1.0 ml media for a maximum anticipated concentration of about 10 mg/ml of the free form of the compound. The resulting suspensions are then shaken at 25° C./750 rpm for 4 hours. The pH of the sample solutions is checked after 1 hour to ensure that the desired pH is maintained throughout (+0.2). After equilibration, the appearance is noted, and the final pH of the saturated solution is measured. Samples are then filtered through a glass ‘C’ fibre filter (Particle retention size 1.2 μm), before dilution with buffer as appropriate. Quantitation is by HPLC with reference to a standard solution of approximately 0.15 mg/ml. Different volumes of the standard, diluted and undiluted sample solutions are injected.
The HPLC method for solubility measurements is as follows:
Analysis is performed on an Agilent HP1100/Infinity II 1260 series system equipped with a diode array detector and using OpenLAB software.

[2] = Protocol: XRPD diffractograms are collected on a Bruker D8 diffractometer using Cu Ka radiation (40 kV, 40 mA) and a 0-20 goniometer fitted with a Ge monochromator. The incident beam passes through a 2.0 mm divergence slit followed by a 0.2 mm anti-scatter slit and knife edge. The diffracted beam passes through an 8.0 mm receiving slit with 2.5° Soller slits followed by the Lynxeye Detector. The software used for data collection and analysis is Diffrac Plus XRD Commander and Diffrac Plus EVA respectively. Samples are run under ambient conditions as flat plate specimens using powder as received. The sample is prepared on a polished, zero-background (510) silicon wafer by gently pressing onto the flat surface or packed into a cut cavity. The sample is rotated in its own plane.
The details of the standard data collection method are: • Angular range: 2 to 42° 20 • Step size: 0.05° 20 • Collection time: 0.5 s/step (total collection time: 6.40 min)

[3] = remark: listed apart in the source
Protocol: Sorption isotherms are obtained using a Hiden IGASorp moisture sorption analyser, controlled by Isochema HISorp software. The sample temperature is maintained at 25° C. by a Grant LT ecocool 150 re-circulating water bath. The humidity is controlled by mixing streams of dry and wet nitrogen, with a total flow rate of 250 ml/min. The relative humidity is measured by a calibrated Vaisala RH probe (dynamic range of 0-95% RH), located near the sample. The weight change, (mass relaxation) of the sample as a function of % RH is constantly monitored by the microbalance (accuracy±0.001 mg). Typically, 20-30 mg of sample is placed in a tared mesh stainless steel basket under ambient conditions. The sample is loaded and unloaded at 40% RH and 25° C.(typical room conditions). A moisture sorption isotherm is performed as outlined below (2 scans, giving 1 complete cycle). The standard isotherm is performed at 25° C. at 10% RH intervals over a 0-90% RH range.

Nc1ccccc1NC(=O)c1ccc(CNC(=O)OCc2cccnc2)cc1 [U.S. Pat. No. 7,973,166 Polymorph A, N-(2-aminophenyl)-4-[N-(pyridine-3-yl)-methoxycarbonylamino-methyl]-benzamide] gave a solubility at 4 h ([1]; aqueous buffer, pH 4.5 acetate buffer) of 190 µg/mL (≈ 505 µM), a solubility at 4 h ([1]; aqueous buffer, pH 6.8 phosphate buffer) of 75 µg/mL (≈ 199 µM) and a solubility at 4 h ([1]; aqueous buffer, pH 7.5 phosphate buffer) of 72 µg/mL (≈ 191 µM). For the same compound, the solubility at 4 h ([1]; buffer pH 2.8, aqueous buffer, pH 2.8 buffer) was 5900 µg/mL (≈ 15700 µM) and the solubility at 4 h ([1]; simulated gastric fluid, pH 1.2 hydrochloric acid buffer) was > 7900 µg/mL.

With Nc1ccccc1NC(=O)c1ccc(CNC(=O)OCc2cccnc2)cc1.O=C(O)CCC(=O)O [Form C of entinostat compound with succinic acid] the “time the form remains stable, as evidenced by XRPD” value (shortened to “time the form remains stable”) ([2]; 40° C./75% RH) was “at least 7 days”.

For Nc1ccccc1NC(=O)c1ccc(CNC(=O)OCc2cccnc2)cc1.O=C(O)C=CC(=O)O, the “stability of crystalline form (no change in form by XRPD)” value ([2]; 40° C./75% RH) was “stable at 40° C./75% RH for at least two weeks”.

For Nc1ccccc1NC(=O)c1ccc(CNC(=O)OCc2cccnc2)cc1.O=C(O)CCC(=O)O [Form B of entinostat compound with succinic acid], the “time the form remains stable” value ([2]; 40° C./75% RH) was “at least 7 days”.

For Nc1ccccc1NC(=O)c1ccc(CNC(=O)OCc2cccnc2)cc1.O=C(O)CCC(=O)O [Form A of entinostat compound with succinic acid], the “reversible water uptake by GVS” value ([3]; 25° C., 0-90% RH) was ~0.5 wt %, the “post GVS XRPD, change of crystalline form” value ([3]; after GVS cycle) was “no change in crystalline form” and the “time the form remains stable” value ([2]; 25° C./97% RH) was “at least 28 days”. For the same compound, the “time the form remains stable” value ([2]; 40° C./75% RH) was “at least 28 days”.
